Structures are written as SMILES.

The assay concerns the target T1, hFXR (Homo sapiens, UniProt Q96RI1).
T1 construct: expressed in transfected cells; host or cells: CV-1 cells
T1 sequence (Q96RI1 1-486): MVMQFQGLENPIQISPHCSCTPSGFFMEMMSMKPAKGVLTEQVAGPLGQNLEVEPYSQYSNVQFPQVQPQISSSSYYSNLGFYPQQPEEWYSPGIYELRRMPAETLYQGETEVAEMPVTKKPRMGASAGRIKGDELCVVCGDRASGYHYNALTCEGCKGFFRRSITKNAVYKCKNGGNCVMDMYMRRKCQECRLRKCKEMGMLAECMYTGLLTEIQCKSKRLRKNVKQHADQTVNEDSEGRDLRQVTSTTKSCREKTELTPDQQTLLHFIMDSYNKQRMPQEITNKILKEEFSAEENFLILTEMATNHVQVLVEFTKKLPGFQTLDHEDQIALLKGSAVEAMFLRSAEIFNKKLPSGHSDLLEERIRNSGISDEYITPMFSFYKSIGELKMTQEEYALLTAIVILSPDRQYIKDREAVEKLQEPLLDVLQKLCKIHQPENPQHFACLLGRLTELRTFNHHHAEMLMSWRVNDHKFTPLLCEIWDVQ
T1 sequence (P19793 1-462 partner): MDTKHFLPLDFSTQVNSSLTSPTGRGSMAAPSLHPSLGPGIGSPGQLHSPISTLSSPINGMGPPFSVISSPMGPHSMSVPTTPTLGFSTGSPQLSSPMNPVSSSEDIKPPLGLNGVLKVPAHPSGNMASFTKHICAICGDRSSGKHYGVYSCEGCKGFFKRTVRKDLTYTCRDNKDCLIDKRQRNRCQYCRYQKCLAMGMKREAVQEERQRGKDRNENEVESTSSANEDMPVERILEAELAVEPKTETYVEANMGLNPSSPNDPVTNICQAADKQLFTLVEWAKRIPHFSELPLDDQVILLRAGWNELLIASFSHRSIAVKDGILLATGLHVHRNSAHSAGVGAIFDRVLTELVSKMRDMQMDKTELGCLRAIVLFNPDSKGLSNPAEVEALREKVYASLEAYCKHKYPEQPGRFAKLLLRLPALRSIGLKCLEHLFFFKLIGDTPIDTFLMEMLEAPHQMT
Briefly: In Vitro FXR Assay (TK): TK-ECRE-luc reporter in transfected CV-1 cells. It is filed as cell-based. Particulars: 18 hrs incubation, luminescence. An outline of the steps: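 First, CV-1 cells were grown overnight in stripped-serum DMEM, then transfected for 18 h with expression plasmids for human FXR and RXR plus a TK-ECRE luciferase reporter and YFP. Next, serially diluted compounds were applied for 18 h, and lysates were read by luminescence.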
In turn, `COc1ccc(C23CCC(CN(c4ccc(F)c(-c5cnn(C(C)C)c5)c4)C(=O)[C@H]4CC[C@H](OC(=O)N5CC(C#N)C5)CC4)(CC2)CC3)cc1C` [Compound 25.11, 4-((4-Fluoro-3-(1-isopropyl-1H-pyrazol-4-yl)phenyl)((4-(4-methoxy-3-methylphenyl)bicyclo[2.2.2]octan-1-yl)methyl)carbamoyl)cyclohexyl trans-3-cyanoazetidine-1-carboxylate] came in with an EC50 of at most 50 nM.

As for `COc1ccc([C@H]2CC[C@H](CN(c3cccc(-c4cnn(C(C)C)c4)c3)C(=O)[C@H]3CC[C@H](NC(=O)C(C)C)CC3)CC2)cc1C` [Compound 10.06, trans-4-Isobutyramido-N-(3-(1-isopropyl-1H-pyrazol-4-yl)phenyl)-N-((trans-4-(4-methoxy-3-methylphenyl)cyclohexyl)methyl) cyclohexanecarboxamide], the EC50 was at most 50 nM.

In turn, `CCc1nc(-c2ccnc(N(CC34CCC(c5ccc(OC)c(C)c5)(CC3)CC4)C(=O)[C@H]3CC[C@H](OC(=O)N4CC(CO)C4)CC3)c2)co1` [Compound 4.30, 4-((4-(2-Ethyloxazol-4-yl)pyridin-2-yl)((4-(4-methoxy-3-methylphenyl)bicyclo[2.2.2]octan-1-yl)methyl)carbamoyl)(trans-cyclohexyl) 3-(hydroxymethyl)azetidine-1-carboxylate] came in with a concentration for a half-maximal effect (EC50) of at most 50 nM.

The compound `COc1ccc(C23CCC(CN(c4ccnc(-c5cnn(C6(C)CCC6)c5)c4)C(=O)[C@H]4CC[C@H](OC(=O)N5CC(O)C5)CC4)(CC2)CC3)cc1C` [Compound 25.23, 4-(((4-(4-Methoxy-3-methylphenyl)bicyclo[2.2.2]octan-1-yl)methyl)(2-(1-(1-methylcyclobutyl)-1H-pyrazol-4-yl)pyridin-4-yl)carbamoyl)cyclohexyl trans-3-hydroxyazetidine-1-carboxylate] gave an EC50 of at most 50 nM.

In turn, `COc1ccc(C23CCC(CN(c4cc(-c5cnn(C6CC[S+]([O-])CC6)c5)ccn4)C(=O)[C@H]4CC[C@H](OC(=O)N5CC(O)C5)CC4)(CC2)CC3)cc1C` (stereo partly drawn) [Compound 26.22, 4-(((4-(4-Methoxy-3-methylphenyl)bicyclo[2.2.2]octan-1-yl)methyl)(4-(1-(1-oxidotetrahydro-2H-thiopyran-4-yl)-1H-pyrazol-4-yl)pyridin-2-yl)carbamoyl)cyclohexyl trans-3-hydroxyazetidine-1-carboxylate] yielded an EC50 of 1000 to 10000 nM.

The compound `COc1ccc(C23CCC(CN(c4cc(-c5cnn(C6CCC6)c5)ncn4)C(=O)[C@H]4CC[C@H](OC(=O)N5CC(CO)C5)CC4)(CC2)CC3)cc1C` [Compound 23.24] gave an EC50 of at most 50 nM.

The compound `COc1ccc(C23CCC(CN(c4cc(-c5cnn(C(C)C)c5)ccn4)C(=O)[C@H]4CC[C@H](NC(=O)OC(C)C)CC4)(CC2)CC3)cc1C` [Compound 8.02, (trans)-Isopropyl (4-((4-(1-isopropyl-1H-pyrazol-4-yl)pyridin-2-yl)((4-(4-methoxy-3-methylphenyl)bicyclo[2.2.2]octan-1-yl)methyl)carbamoyl)cyclohexyl)car-bamate] showed an EC50 of at most 50 nM.

`COc1ccc([C@H]2CC[C@H](CN(c3cc(-c4cnc(N(C)C)nc4)ccn3)C(=O)[C@H]3CC[C@H](OC(=O)N4CC(O)C4)CC3)CC2)cc1C` [Compound 3.01, trans-4-((4-(2-(Dimethylamino)pyrimidin-5-yl)pyridin-2-yl)((trans-4-(4-methoxy-3-methylphenyl)cyclohexyl)methyl)carbamoyl) cyclohexyl 3-hydroxyazetidine-1-carboxylate] had an EC50 of at most 50 nM.

The compound `COc1ccc([C@H]2CC[C@H](CN(c3cc(-c4cnc(C5CC5)s4)ccn3)C(=O)[C@H]3CC[C@H](OC(=O)N4CCN(C)CC4)CC3)CC2)cc1Cl` [Compound 2.08, trans-4-(((trans-4-(3-Chloro-4-methoxyphenyl)cyclohexyl)methyl)(4-(2-cyclopropylthiazol-5-yl)pyridin-2-yl)carbamoyl)cyclohexyl 4-methylpiperazine-1-carboxylate] displayed an EC50 of at most 50 nM.

In the case of `COc1ccc(C23CCC(CN(c4cncc(-c5cnn(C6(C)CCC6)c5)n4)C(=O)[C@H]4CC[C@H](OC(=O)N5CC(O)C5)CC4)(CC2)CC3)cc1C` [Compound 25.27, 4-(((4-(4-Methoxy-3-methylphenyl)bicyclo[2.2.2]octan-1-yl)methyl)(6-(1-(1-methylcyclobutyl)-1H-pyrazol-4-yl)pyrazin-2-yl)carbamoyl)cyclohexyl trans-3-hydroxyazetidine-1-carboxylate], the EC50 was at most 50 nM.

As for `O=C(O[C@H]1CC[C@H](C(=O)N(C[C@H]2CC[C@H](c3cc4ccccn4c3)CC2)c2cccc(-c3cnc(C4CC4)s3)c2)CC1)N1CC(O)C1` [Compound 5.14, trans-4-((3-(2-Cyclopropylthiazol-5-yl)phenyl)((trans-4-(indolizin-2-yl)cyclohexyl)methyl)carbamoyl) cyclohexyl 3-hydroxyazetidine-1-carboxylate], the EC50 is at most 50 nM.

Consider `COCC(=O)N[C@H]1CC[C@H](C(=O)N(CC23CCC(c4ccc(OC)c(C)c4)(CC2)CC3)c2cc(-c3cnn(C(C)C)c3)ccn2)CC1` [Compound 9.01, trans-N-(4-(1-Isopropyl-1H-pyrazol-4-yl)pyridin-2-yl)-N-((4-(4-methoxy-3-methylphenyl)bicyclo[2.2.2]octan-1-yl)methyl)-4-(2-methoxyacetamido)cyclohexanecar-boxamide], for which the EC50 is at most 50 nM.

Regarding `COc1ccc([C@H]2CC[C@H](CN(c3cc(-c4cnc(C(C)C)s4)ccn3)C(=O)[C@H]3CC[C@H](OC(=O)NCC(C)(C)O)CC3)CC2)cc1C` [Compound 2.10, trans-4-((4-(2-Isopropylthiazol-5-yl)pyridin-2-yl)((trans-4-(4-methoxy-3-methylphenyl)cyclohexyl)methyl)carbamoyl) cyclohexyl(2-hydroxy-2-methylpropyl)carbamate], the EC50 was at most 50 nM.

As for `COc1ccc(C23CCC(CN(c4cncc(-c5cnn(C(C)C)c5)c4)C(=O)[C@H]4CC[C@H](OC(=O)N5CC(O)C5)CC4)(CC2)CC3)cc1C` [Compound 25, 4-((5-(1-Isopropyl-1H-pyrazol-4-yl)pyridin-3-yl)((4-(4-methoxy-3-methylphenyl)bicyclo[2.2.2]octan-1-yl)methyl)carbamoyl)cyclohexyl trans-3-hydroxyazetidine-1-carboxylate], the EC50 is at most 50 nM.

In turn, `CCS(=O)(=O)NC[C@H]1CC[C@H](C(=O)N(C[C@H]2CC[C@H](c3ccc(OC)c(C)c3)CC2)c2cccc(-c3cnn(C(C)C)c3)c2)CC1` [Compound 12, (trans)-4-(Ethylsulfonamidomethyl)-N-(3-(1-isopropyl-1H-pyrazol-4-yl)phenyl)-N-(((trans)-4-(4-methoxy-3-methylphenyl)cyclohexyl)methyl)cyclohexanecarboxamide] registered an EC50 of at most 50 nM.

Turning to `COc1ccc(C23CCC(CN(c4cc(-c5cnn(C(C)C)c5)c(F)cn4)C(=O)[C@H]4CC[C@H](OC(=O)N5CC(C#N)C5)CC4)(CC2)CC3)cc1C` [Compound 25.12, 4-((5-Fluoro-4-(1-isopropyl-1H-pyrazol-4-yl)pyridin-2-yl)((4-(4-methoxy-3-methylphenyl)bicyclo[2.2.2]octan-1-yl)methyl)carbamoyl)cyclohexyl trans-3-cyanoazetidine-1-carboxylate], the EC50 was at most 50 nM.

Turning to `COc1ccc([C@H]2CC[C@H](CN(c3cc(-c4cnn(C(C)C)c4)ccn3)C(=O)[C@H]3CC[C@H](CO)CC3)CC2)cc1C` [Compound 17, (trans)-4-(Hydroxymethyl)-N-(4-(1-isopropyl-1H-pyrazol-4-yl)pyridin-2-yl)-N-(((trans)-4-(4-methoxy-3-methylphenyl)cyclohexyl)methyl)cy-clohexanecarboxamide], the EC50 was at most 50 nM.

In the case of `COC(=O)CCC(=O)N[C@H]1CC[C@H](C(=O)N(C[C@H]2CC[C@H](c3ccc(OC)c(C)c3)CC2)c2cccc(-c3cnn(C(C)C)c3)c2)CC1` [Compound 10.04, Methyl 4-((trans-4-((3-(1-isopropyl-1H-pyrazol-4-yl)phenyl)((trans-4-(4-methoxy-3-methylphenyl)cyclohexyl)methyl)carbamoyl)cyclohexyl)amino)-4-oxobutanoate], the EC50 was in the range of 50 to 1000 nM.

Compound `COc1ccc([C@H]2CC[C@H](CN(c3cc(-c4cnn(C(C)C)c4)ccn3)C(=O)[C@H]3CC[C@H](OC(=O)NCCC(C)(C)O)CC3)CC2)cc1C` [Compound 2.21, trans-4-((4-(1-Isopropyl-1H-pyrazol-4-yl)pyridin-2-yl) ((trans-4-(4-methoxy-3-methylphenyl)cyclohexyl)methyl)carbamoyl) cyclohexyl(3-hydroxy-3-methylbutyl)carbamate] showed an EC50 of at most 50 nM.

One may read the EC50 as the concentration needed to bring the measured effect to its halfway point. Low readings indicate a more potent agent, high ones a less potent agent.
